A short description of the assay: Inhibition of RSK2 in human MOLM-13 assessed as reduction in cell viability measured after 72 hrs by MTS assay. A general note: Tetrazolium assays rely on reduction of a dye to a coloured formazan, in cell work by metabolically active cells.
The term EC50 denotes the concentration that produces a half-maximal response. With `CC(C)CCn1cnc2cnc(Nc3cc(F)c(O)c(F)c3)nc21`, the EC50 came to 970 nM. With `Oc1c(F)cc(Nc2ncc3ncn(-c4ccc(CCN5CCOCC5)cc4)c3n2)cc1F` the figure was 1900 nM; with `COC(=O)CCCc1ccc(-n2cnc3cnc(Nc4cc(F)c(O)c(F)c4)nc32)cc1`, 13900 nM.

In the case of `CC(C)CCn1ccc2cnc(Nc3cc(F)c(O)c(F)c3)nc21`, the EC50 turned out to be 1300 nM. Consider `Oc1c(F)cc(Nc2ncc3ccn(-c4ccc(N5CCOCC5)cc4)c3n2)cc1F`, for which the 50% effective concentration (EC50) worked out at 230 nM. The figure for `CN1CCN(c2ccc(-n3ccc4cnc(Nc5cc(F)c(O)c(F)c5)nc43)cc2)CC1` is 70 nM.

The values are drawn from BindingDB's records for doi:10.1016/j.bmc.2021.116220 (University of Colorado Anschutz Medical Campus, 2021).
